# Reference: patent publication US20040151761A1, “Methods and compositions utilizing astaxanthin” (priority 2003, published 2004)
# “Also recorded” adds a separate entry of the source.
# Legend:
# [1] = test system: cutaneous delayed-type hypersensitivity (DTH); experiment: Delayed-type hypersensitivity (skin induration) in dogs; assay type: in vivo, dog
# Protocol: Female Beagle dogs (9 to 10 mo old; 8.2±0.2 kg body weight; Covance Research Products Inc., Kalamazoo, Mich.) were randomly assigned (n=14/treatment) to be fed 0, 10, 20, or 40 mg astaxanthin (109 g astaxanthin/kg oleoresin concentrate from Haematococcus pluvialis, astraZanthin™, La Haye Laboratories, Redmond, Wash.) daily for 16 weeks. Astaxanthin was incorporated into a commercial basal diet (The Iams Co., Lewisburg, Ohio.) and fed two times daily (200 g food/d). […] Blood was collected on wk 0, 6 and 12 for assessing immune function. All dogs were vaccinated (Vanguard 5™, Smithkline Beacham, West Chester, Pa.) twice on week 12 and 14 and blood again taken on week 16 to assess post-vaccination immune responses.
# On week 12 (before vaccination) and 16 (after vaccination), all dogs were injected intradermally with 100 microliters of (1) saline (8.5 g/L; negative control), (2) an attenuated polyvalent vaccine containing canine distemper virus, adenovirus type-2, parainfluenza virus and parvovirus (undiluted; Vanguard 5™, Smithkline Beacham, West Chester, Pa.), and (3) phytohemagglutinin (PHA, 0.5 g/L) as previously described (Chew et al., 2000) to assess cutaneous delayed-type hypersensitivity (DTH). Skin induration was measured at 0, 24, 48 and 72 hours post-injection.
# [2] = test system: IgG and IgM; experiment: Plasma IgG and IgM in dogs (ELISA); assay type: in vivo, dog
# From the text: Female Beagle dogs (9 to 10 mo old; 8.2±0.2 kg body weight; Covance Research Products Inc., Kalamazoo, Mich.) were randomly assigned ([…] concentrate from Haematococcus pluvialis, astraZanthin™, La Haye Laboratories, Redmond, Wash.) daily for 16 weeks. Astaxanthin was incorporated into a commercial basal diet (The Iams Co., Lewisburg, Ohio.) and fed two times daily (200 g food/d). The diet composition was as follows (g/kg): 85.3 moisture, 275.8 protein, 60.7 ash, 115.0 fat, 9.9 Ca, 9.3 P, 21.3 crude fiber, and 18,914 kJ/kg gross energy; the n-6:n-3 fatty acid ratio was 7.9. Dogs were housed in 2×3 m pens (2 dogs/pen) in a temperature (20 to 22° C.) and light-(14 hour light) controlled facility. Body weight was recorded on week 0, 4, 8, and 16. Blood was collected on wk 0, 6 and 12 for assessing immune function. All dogs were vaccinated (Vanguard 5™, Smithkline Beacham, West Chester, Pa.) twice on week 12 and 14 and blood again taken on week 16 to assess post-vaccination immune responses.
# IgG and IgM. Concentrations of IgG (sheep anti-dog IgG; sensitivity=16 micrograms/L) and IgM (goat anti-dog IgM; sensitivity=31 micrograms/L) in plasma were analyzed by ELISA using a commercial kit (Bethyl Lab., Inc., Montgomery, Tex.).
# [3] = test system: lipid peroxidation; experiment: Lipid peroxidation in dogs; assay type: in vivo, dog
# [4] = test system: Cutaneous delayed-type hypersensitivity (DTH); experiment: Delayed-type hypersensitivity (skin induration) in cats; assay type: in vivo, cat
# [5] = test system: total T, Th, Tc, MHC II and CD21 lymphocyte populations; experiment: Leukocyte subsets in cats by flow cytometry; assay type: in vivo, cat
# From the text: Leukocyte subset. Blood collected at week 0, 8 and 12 was phenotyped for populations of CD3 (total T), CD4 (Th), CD8 (Tc), MHC II (activated lymphocytes), and CD21 (mature B cells) by flow cytometry (FACSCalibur, Becton Dickenson, San Jose, Calif.) as previously described (Chew et al., 2000).
# [6] = test system: Crandell feline kidney fibroblast cells (CrFK); experiment: Natural killer cell cytotoxic activity in cats; assay type: in vivo, cat
# Protocol: Natural killer cell cytotoxic activity. Cultures of Crandell feline kidney fibroblast cells (CrFK, ATCC CRL-9761; Crandell et al., 1973) were grown in Dulbecco's Modified Eagles Medium (Sigma, St. Louis, Mo.) with 10% fetal bovine serum, 100 U/mL penicillin, and […] streptomycin sulfate. At 70-90% confluence, cells were trypsinized, washed and adjusted to 2×10^5 cells/mL. One hundred microliters of cell suspension was pipeted into each well of 96-well flat bottom plates (Nunclon, Denmark) and incubated at 37° C. for 8 hours. Ficoll-separated PBMC were adjusted to 1×10^6/mL or 2×10^6/mL and 100 μL of the cell suspensions were added to the CrFK target cells to provide effector:target cell ratios of 5:1 and 10:1. After incubating for 8 hours, 20 μL MTT (5 g/L) were added and the mixture incubated for 4 hours. The supernatant was removed and the formazan resuspended in 100 μL isopropanol. Optical density was measured at 550 nm and the percent of specific cytotoxicity calculated as follows:
# % Specific cytotoxicity=1−(ODeffector+target−ODeffector)/ODtarget×100.
# [7] = Absorption of astaxanthin and distribution to blood leukocytes and HDL in dogs; assay type: in vivo, dog
# [8] = Absorption of astaxanthin and distribution to blood leukocytes and HDL in cats; assay type: in vivo, cat
# [9] = test system: total T, Th, Tc, MHC II and CD21 lymphocyte populations; experiment: Leukocyte subsets in cats by flow cytometry; assay type: in vivo, cat; conditions: by weeks 8 and 12, generally dose-dependent
# [10] = test system: mouse splenocytes; conditions: cultured cell assay (Jyonouchi et al.); cited from earlier work
# [11] = test system: humoral and cell-mediated immune responses; conditions: cited from earlier work
# [12] = test system: mammary and bladder tumor; conditions: cited from earlier work
# [13] = test system: splenocyte; conditions: mice (Chew et al., 1999); cited from earlier work
smiles,measurement,setting,value
"CC1=C(/C=C/C(C)=C/C=C/C(C)=C/C=C/C=C(C)/C=C/C=C(C)/C=C/C2=C(C)C(=O)C(O)CC2(C)C)C(C)(C)CC(O)C1=O (stereo not drawn) [astaxanthin, 3,3′-dihydroxy-beta, beta-carotene-4,4′-dione]",time after intradermal challenge at which skin induration response was observed,[1]; before vaccination,48 h
same,DTH response to PHA,[1]; nonspecific antigen,No similar response was observed; also recorded: but not to PHA
same,time after intradermal challenge at which skin induration response was observed,[1]; post-vaccination,24 h
same,DTH response compared with other carotenoids previously investigated,[1]; versus β-carotene and lutein in dogs,heightened DTH response
same,"skin induration response to saline, PHA or vaccine",[1]; wk 0 and 8,did not significantly influence
same,DTH response to intradermal vaccine challenge,"[1]; wk 12 (before vaccination), dogs fed 10, 20 and 30 mg (10 to 40 mg)",significant DTH response to vaccine; also recorded: higher DTH response at 38 and 72 h; also recorded: increased delayed-type hypersensitivity (DTH) response
same,DTH response to intradermal vaccine challenge,"[1]; wk 16, after vaccination on wk 12 and 14",observed earlier (at 24 and 38 h); also recorded: similarly enhanced
same,plasma IgG concentration,"[2]; 20 mg, post-vaccination week 16",higher; also recorded: highest concentrations of IgG and IgM
same,plasma IgG concentration,"[2]; 20 mg, week 12",higher
same,plasma IgM concentration,"[2]; 20 mg, week 16",significantly higher IgM concentrations; also recorded: highest concentrations of IgG and IgM
same,IgG production,[2]; higher (30 mg) dietary astaxanthin,did not produce the same stimulation
same,lipid peroxidation,[3],reduced lipid peroxidation
same,DTH response with dietary astaxanthin,"[4]; after vaccination, wk 12",somewhat diminished
same,skin induration response to vaccine,"[4]; wk 8, 72 h post-injection, cats fed 10 mg",significant enhancement
same,DTH response to con A,"[4]; wk 8, cats fed 5 or 10 mg",higher DTH response to con A at 24 and 48 h
same,time of maximal skin induration response to vaccine,"[4]; wk 8, post-injection",72 h
same,DTH response to nonspecific (con A) antigenic challenge,"[4]; wk 8, pre-vaccination",stimulated DTH response; also recorded: increased DTH response
same,DTH response to specific (vaccine) antigenic challenge,"[4]; wk 8, pre-vaccination",stimulated DTH response; also recorded: increased DTH response
same,DTH response to con A,[4]; wk 12,significant only with 1 mg astaxanthin
same,DTH response to vaccine,"[4]; wk 12, cats fed 10 mg","still showed enhanced DTH response to vaccine, but at 24 h after injection"
same,CD8+ T cytotoxic (Tc) cells averaged,[5]; average over diets,4.7±0.4
same,MHC class II population averaged,"[5]; average over diets, in % (unit assumed)",94.1±1.0
same,population of CD4+ T helper (Th) cells,"[5]; by weeks 8 and 12, generally dose-dependent",increased the populations; also recorded: increase in the populations of total T and Th lymphocytes
same,MHC class II population,[5]; in vivo,did not influence
same,distribution of CD8+ T cytotoxic (Tc) cells,[5]; in vivo,did not influence
same,population of B cells,[5]; in vivo,decreased the population of B cells; also recorded: decrease in the B cell population
same,NK cell cytotoxic activity,[6]; week 8,no dietary treatment differences
same,NK cell cytotoxic activity,"[6]; week 12, effector:target ratio 5:1, 5 and 10 mg",stimulated NK cell cytotoxic activity
same,NK cell cytotoxic activity,"[6]; week 12, effector:target ratio 10:1, 1, 5 and 10 mg",stimulated NK cell cytotoxic activity
same,lipoprotein association of circulating astaxanthin,[7]; dogs,associated with high-density lipoprotein (HDL)
same,absorption of dietary astaxanthin,[7]; domestic dogs,able to absorb dietary astaxanthin
same,uptake by blood and blood leukocytes (sub-cellular organelles),[7]; domestic dogs fed astaxanthin,significant uptake by the blood and by all sub-cellular organelles of blood leukocytes; also recorded: significantly absorbed by blood leukocytes
same,lipoprotein association of circulating astaxanthin,[8]; cats,associated with high-density lipoprotein (HDL)
same,absorption of dietary astaxanthin,[8]; domestic cats,able to absorb dietary astaxanthin
same,uptake by blood and blood leukocytes (sub-cellular organelles),[8]; domestic cats fed astaxanthin,significant uptake by the blood and by all sub-cellular organelles of blood leukocytes; also recorded: significantly absorbed by blood leukocytes
same,population of CD5+ total T cells,[9],increased the populations; also recorded: increase in the populations of total T and Th lymphocytes
same,in vitro antibody response of mouse splenocytes to T-dependent antigens,[10],increase in vitro antibody response
same,cell-mediated immune response,"[11]; rodents (Chew et al., 1999b)",enhanced
same,T cell-mediated antibody production,"[11]; rodents (Jyonouchi et al., 1994)",increased T cell-mediated antibody production
same,humoral immune response,"[11]; rodents (Jyonouchi et al., 1995)",enhanced
same,mammary tumor growth,"[12]; rodents (Chew et al., 1999a)",inhibited
same,bladder tumor growth,"[12]; rodents (Tanaka et al., 1994)",inhibited
same,mitogen-induced splenocyte proliferation,[13],enhance mitogen-induced splenocyte proliferation
